Data: patent US9695132B2, “Heteroaryl compounds and uses thereof” (Celgene CAR LLC, priority 2013, dated 2017)
“Also recorded” adds a separate entry of the source.

How the values were obtained:
[1] = target: FGFR4 in MDA-MB-453 cells (Homo sapiens, UniProt P22455); assay: Target occupancy assay with biotinylated covalent probe I-127; format: cell-based
Protocol: In order to assess free FGFR4 protein a biotinylated covalent probe was utilized. […] The reaction was incubated for 2 hr at room temperature. The samples and probe mixture were transferred to a FGFR4-coated MSD plate for 2 hr at room temperature. MSD signals were obtained with an anti-streptavidin Sulfo-tag (Meso Scale) antibody for 1 hr at room temperature. […] If a compound completely (100%) covalently modies FGFR4 no free FGFR4 should be available for covalent modification by the biotinylated probe and subsequent binding to streptavidin and detection.

[2] = target: pFGFR4 in MDA-MB-453 cells (Homo sapiens, UniProt P22455); assay: Washout experiment (pFGFR4 after compound removal); format: cell-based; settings: 1000-2000 nM for 1 hr, washed, followed up to 24 hr
Protocol: The cells were allowed to settle down for 4 hrs and were then maintained in low-serum (0.1% FBS) media overnight. The following morning, the media was removed and the cells were treated with 1000-2000 nM of test compound in low-serum media for 1 hr. The cells were washed free of test compound (3×) with PBS (Invitrogen). One set of cells was immediately lysed as indicated above as the 0 hr time point. The remaining cells were incubated with the appropriate complete growth media (10-20% FBS) for 1, 2, 4, 8, 16 (in certain circumstances) and 24 hr. DMSO (0.5%) controls were collected at all time points.

FGFR4-WT = FGFR4-WT (Homo sapiens (Human), UniProt P22455); assay: Omnia assay for potency assessment against FGFR4 enzyme; format: biochemical; settings: method b: [FGFR4-WT]=2.5 nM (SignalChem), [ATP]=250 uM, [Y10-Sox]=10 uM
How it was run: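 Continuous fluorescence kinase assay using wild-type FGFR4 from either of two commercial sources, Tyr-Sox peptide substrate and ATP in pH 7.5 Tris buffer with MgCl2, EGTA, β-glycerophosphate, glycerol and DTT.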

Sequence of pFGFR4 in MDA-MB-453 cells (P22455 22-802 limits assumed): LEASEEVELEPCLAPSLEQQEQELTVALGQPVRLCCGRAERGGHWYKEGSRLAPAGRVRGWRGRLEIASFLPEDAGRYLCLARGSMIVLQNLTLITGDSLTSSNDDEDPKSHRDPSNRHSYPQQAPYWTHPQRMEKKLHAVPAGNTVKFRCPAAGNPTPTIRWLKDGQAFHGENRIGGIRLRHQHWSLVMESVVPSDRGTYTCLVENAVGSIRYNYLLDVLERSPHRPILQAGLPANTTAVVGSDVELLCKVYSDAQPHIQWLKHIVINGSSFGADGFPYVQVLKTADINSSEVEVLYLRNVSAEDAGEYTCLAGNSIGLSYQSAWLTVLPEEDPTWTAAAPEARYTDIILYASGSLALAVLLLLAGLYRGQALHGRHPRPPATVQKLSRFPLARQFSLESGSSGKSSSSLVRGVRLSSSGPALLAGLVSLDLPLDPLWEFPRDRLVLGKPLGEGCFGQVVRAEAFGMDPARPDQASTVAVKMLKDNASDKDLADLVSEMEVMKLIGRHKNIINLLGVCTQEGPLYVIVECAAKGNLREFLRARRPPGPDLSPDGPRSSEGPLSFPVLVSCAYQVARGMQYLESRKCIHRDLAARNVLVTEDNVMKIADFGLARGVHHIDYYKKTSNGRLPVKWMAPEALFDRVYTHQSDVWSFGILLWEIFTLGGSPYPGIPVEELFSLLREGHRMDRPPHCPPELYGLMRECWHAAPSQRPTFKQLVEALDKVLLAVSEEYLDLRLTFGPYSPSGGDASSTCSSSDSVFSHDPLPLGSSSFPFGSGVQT
Sequence of FGFR4 in MDA-MB-453 cells (P22455 22-802 limits assumed): as above
Sequence of FGFR4-WT (P22455 22-802): as the sequence (P22455 22-802 limits assumed) above

| Structure (SMILES) | EC50 [1] [nM] | duration of action against pFGFR4 signalling after washout [2] | IC50 (FGFR4-WT) [nM] |
| --- | --- | --- | --- |
| CCC(=O)Nc1cccc(CN2C(=O)N(c3c(Cl)c(OC)cc(OC)c3Cl)Cc3cnc(Nc4ccccc4NC(=O)CC)nc32)c1 [Compound I-234] | > 1000 | does not show prolonged duration of action; also recorded: does not have PDA | 101 to 500 |
| C=CC(=O)NC1CCCCC1Nc1ncc2c(n1)N(Cc1cscn1)C(=O)N(c1c(Cl)c(OC)cc(OC)c1Cl)C2 (racemic) [Compound I-69] | – | prolonged inhibition of autophosphorylation of FGFR4; also recorded: prolonged duration of action | – |
